Data published in patent US4132723A, “Substituted phenyl- or cyclohex-1-en-1-yl-3,7-demethyl-nona-2,4,6-trienoic acids and derivatives thereof” (Hoffmann-La Roche Inc., priority 1973, dated 1979).

Columns and labels:
papillomas = assay: papilloma test (tumors induced with dimethyl-benzanthracene and croton oil); format: in vivo; settings: mice, intraperitoneal, 400 mg/kg/week, within 2 weeks
Protocol: The polyene compounds of formula I are useful in the topical and systemic prophylaxis and treatment of benign and malignant neoplasias and premalignant lesions. The tumor-inhibiting activity of the polyene compounds of the invention is significant. […] The diameter of such papillomas in mice decreased by 54% within 2 weeks upon the intraperitoneal administration of 3,7-dimethyl-9-(4-methoxy-2,3,6-trimethyl-phenyl)-nona-2,4,6-trien-1-oic acid at a dosage of 400 mg/kg/week.

[1] = acute toxicity in mice after intraperitoneal administration in rape oil; settings: mouse, in vivo, ip

In the case of `COc1cc(C)c(CC/C(C)=C/C=C/C(C)=C/C(=O)O)c(C)c1C` [3,7-dimethyl-9-(4-methoxy-2,3,6-trimethyl-phenyl)-nona-2,4,6-trien-1-oic acid], the “decrease in diameter of papillomas” value (papillomas) is reported as 54%, the LD50 [1] is reported as 1400 mg/kg and the LD50 at 24 h [1] is reported as > 4000 mg/kg. The LD50 at 240 h [1] was 1400 mg/kg and the LD50 at 480 h [1] was 1400 mg/kg.
